A short description of series [1]: Dissolution rate in 0.07 N Hydrochloric acid. Type of series: physicochemical.
For series [2] the following is noted: accelerated stability tests; cited from earlier work.
The conditions of series [3]: 0.07 N Hydrochloric acid, cited from earlier work.
Series [4] is described as follows: Accelerated storage stability of cefdinir, Aluminum pouch, 40 ± 2° C., Rh 75 ± 5%. Type of series: physicochemical.
Setting [5] is: After 30 days at 40 ± 2° C., Rh 75 ± 5%.
[6] abbreviates: After 60 days at 40 ± 2° C., Rh 75 ± 5%.
Where [7] appears, read: After 180 days at 40 ± 2° C., Rh 75 ± 5%.

Consider two compounds from patent publication US20050245738A1, “Stable bioavailable crystalline form or cefdinir and a process for the preparation thereof” (LUPIN LTD, priority 2004, published 2005).

The structures appear in SMILES notation.

Consider `C=CC1=C(C(=O)O)N2C(=O)[C@@H](NC(=O)/C(=N\O)c3csc(N)n3)[C@H]2SC1` [Cefdinir Prepared as per the Method of Dobfar's US Applicati] [reference compound], for which, in series [1], the “IDR: Intrinsic Dissolution Rate” value is on record as 0.1392 mg/cm^2/min. Further, the “Dissolution Profile” value in series [1] (15 Mins) is 4.59 mg/cm^2; in series [1] (30 Mins) it was 6.01 mg/cm^2; in series [1] (45 Mins), 8.70 mg/cm^2; in series [1] (60 Mins), 10.42 mg/cm^2; in series [1] (75 Mins), 12.23 mg/cm^2; in series [1] (90 Mins) it was 14.94 mg/cm^2. Further, the results for the “Dissolution Profile” value in series [1] (105 Mins) and in series [1] (120 Mins) were 16.79 mg/cm^2 and 19.02 mg/cm^2, respectively. In series [2], the “stability compared with reference “Crystal A”” value is listed as “at least equal to that of the reference “Crystal A””. Further, the “solubility compared with reference “Crystal A”” value in series [3] (after the first hour) is on record as “more soluble”. Besides, the “dissolution rate compared with reference “Crystal A”” value in series [3] (initially) is on record as “initially slower”.

For the compound `C=CC1=C(C(=O)O)N2C(=O)[C@@H](NC(=O)/C(=N\O)c3csc(N)n3)[C@H]2SC1` [(Z)-7-[2-(2-amino-4-thiazolyl)-2-hydroxyiminoacetamido]-3-vinyl-3-cephem-4-carboxylic acid], the “IDR: Intrinsic Dissolution Rate” value in series [1] stood at 0.1831 mg/cm^2/min. Moreover, in series [1], the “dissolution rate compared with reference “Crystal A” and material of U.S. Application No. 2003/0204082 A” value is reported as “superior”. Further, the “Dissolution Profile” value worked out at 4.15 mg/cm^2 in series [1] (15 Mins); 8.26 mg/cm^2 in series [1] (30 Mins); 10.31 mg/cm^2 in series [1] (45 Mins); 14.66 mg/cm^2 in series [1] (60 Mins); 16.29 mg/cm^2 in series [1] (75 Mins); 19.47 mg/cm^2 in series [1] (90 Mins). Also, the figures for the “Dissolution Profile” value in series [1] (105 Mins) and in series [1] (120 Mins) were 22.17 mg/cm^2 and 23.01 mg/cm^2, respectively. The thermal stability result in series [4] (40° C. (75% Rh)) is listed as “excellent thermal stability”. Moreover, the “Assay by HPLC (% on Dry Basis)” value was found to be 97.92 % on Dry Basis in series [4] (setting [5]), 97.38 % on Dry Basis in series [4] (setting [6]), 96.65 % on Dry Basis in series [4] (setting [7]) and 98.37 % on Dry Basis in series [4] (Initial). Further, the “Water Content (%)” value in series [4] (setting [5]) stood at 7.46%; in series [4] (setting [6]) it was 7.27%; in series [4] (setting [7]), 7.60%; in series [4] (Initial) it was 7.05%. Moreover, the “pH (1% Aqueous suspension)” value in series [4] (setting [5]) is recorded as 3.46; in series [4] (setting [6]), 3.45; in series [4] (setting [7]), 3.55; in series [4] (Initial), 3.40.
